Legend:
Phaedon cochleariae = Phaedon cochleariae spray test (PHAECO); type: in vivo; settings: application rate of 500 g/ha, after 7 days; for pest or weed control at 500 g/ha: Phaedon cochleariae, 168 h, read-out: efficacy
Method: Phaedon cochleariae—Spray Test (PHAECO)
• Solvent: 78.0 parts by weight of acetone • 1.5 parts by weight of dimethylformamide • Emulsifier: 0.5 part by weight of alkylaryl polyglycol ether
To produce an appropriate active ingredient formulation, 1 part by weight of active ingredient is mixed with the specified amounts of solvent and emulsifier, and the concentrate is diluted to the desired concentration with emulsifier-containing water.
Discs of Chinese cabbage leaves (Brassica pekinensis) are sprayed with an active ingredient formulation of the desired concentration and, after drying, populated with larvae of the mustard beetle (Phaedon cochleariae).
After 7 days, the efficacy in % is determined 100% means that all beetle larvae have been killed; 0% means that none of the beetle larvae have been killed.

[1] = log P by HPLC (OECD Guideline 117), method [a] acidic range; type: physicochemical; settings: for logP[a]: HPLC, method [a] acidic range; for chromatographic logP: reversed-phase C18 HPLC column, acidic range
Method: (§1) The log P values were determined analogously to OECD Guideline 117 (EC Directive 92/69/EEC) by HPLC (high-performance liquid chromatography) using reversed-phase columns (C 18), by the following methods:
[a] The LC-MS determination in the acidic range is effected at pH 2.7 with 0.1% aqueous formic acid and acetonitrile (contains 0.1% formic acid) as eluents; linear gradient from 10% acetonitrile to 95% acetonitrile.

[2] = log P by HPLC (OECD Guideline 117), method [b] neutral range; type: physicochemical; settings: HPLC; for logP[b]: method [b] neutral range; for chromatographic logP: reversed-phase C18 HPLC column, neutral range, pH 7.8
Method: as §1
[b] The LC-MS determination in the neutral range is effected at pH 7.8 with 0.001 molar aqueous ammonium hydrogencarbonate solution and acetonitrile as eluents; linear gradient from 10% acetonitrile to 95% acetonitrile.

Tetranychus urticae = Tetranychus urticae spray test, OP-resistant (TETRUR); type: in vivo; settings: application rate of 500 g/ha, after 6 days; for pest or weed control at 500 g/ha: Tetranychus urticae, 144 h, read-out: efficacy
Method in brief: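 Bean leaf discs infested with all stages of an OP-resistant Tetranychus urticae strain sprayed with compound in acetone/DMF with alkylaryl polyglycol ether emulsifier, diluted in water. Efficacy in % scored after 6 days; 100% means all mites killed.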

Boophilus microplus = Boophilus microplus injection test (BOOPMI Inj); type: in vivo; settings: application rate of 20 μg/animal, assessed after 7 days by laying of fertile eggs
Method: Use Examples Boophilus microplus Injection Test (BOOPMI Inj) • Solvent: dimethyl sulphoxide
To prepare an appropriate active ingredient formulation, 10 mg of active ingredient are mixed with 0.5 ml of solvent and the concentrate is diluted with solvent to the desired concentration.
1 μl of the active ingredient solution is injected into the abdomen of 5 engorged adult female cattle ticks (Boophilus microplus). The animals are transferred into dishes and kept in a climate-controlled room.
The efficacy is assessed after 7 days by laying of fertile eggs. Eggs which are not visibly fertile are stored in a climate-controlled cabinet until the larvae hatch after about 42 days.
An efficacy of 100% means that none of the ticks has laid any fertile eggs; 0% means that all the eggs are fertile.

[3] = pH 2.7, HPLC method [a], read-out: logP[a]
[4] = pH 2.7, HPLC, pH 2.7, read-out: log P[a]

Row | SMILES | efficacy (Phaedon cochleariae) [%] | logP[a] [1] | logP[b] [2] | pest or weed control at 500 g/ha (Phaedon cochleariae) [%] | chromatographic logP [1, 3] | chromatographic logP [1, 4] | chromatographic logP [2] | efficacy (Tetranychus urticae) [%] | pest or weed control at 500 g/ha (Tetranychus urticae) [%] | efficacy (Boophilus microplus) [%]
1 | COc1ccc(-n2nc(OC)n(C3CC3)c2=O)cc1[S+]([O-])CC(F)(F)F (stereo not drawn) [Example 109] | 100 | 2.34 | 2.30 | – | – | – | – | – | – | –
2 | Cc1cc(F)c(-n2nn[nH]c2=O)cc1[S+]([O-])CC(F)(F)F (stereo not drawn) [Example 303, 1-{2-Fluoro-4-methyl-5-[(2,2,2-trifluoroethyl)sulphinyl]phenyl}-1,4-dihydro-5H-tetrazol-5-one] | – | – | – | 100 | 1.59 | 1.59 | 0.37 | – | – | –
3 | COc1nn(-c2cc(SCC(F)(F)F)c(C)cc2F)c(=O)n1C [Example 93] | 100 | 2.78 | 2.73 | – | – | – | – | 90 | – | –
4 | COC1=CC(=O)N(c2ccc(C(F)(F)F)c(SCC(F)(F)F)c2)C1 [Example 322] | 100 | 3.31 | 3.25 | – | – | – | – | – | – | –
5 | Cc1cc(F)c(-n2nc(NC(C)C)n(N)c2=O)cc1[S+]([O-])CC(F)(F)F (stereo not drawn) [Example 225] | 100 | 1.87 | 1.83 | – | – | – | – | 100 | – | –
6 | Cc1cc(F)c(N2CC(OC3CCCC3)=CC2=O)cc1SCC(F)(F)F [Example 329, 4-(Cyclopentyloxy)-1-{2-fluoro-4-methyl-5-[(2,2,2-trifluoroethyl)sulphanyl]phenyl}-1,5-dihydro-2H-pyrrol-2-one] | – | – | – | 100 | 4.2 | 4.2 | 4.06 | – | 90 | –
7 | Cc1cc(F)c(-n2nc(OC(C)(C)C)n(C)c2=O)cc1SCC(F)(F)F [Example 157] | – | 3.98 | 3.88 | – | – | – | – | 100 | – | 100
8 | COc1nn(-c2cc([S+]([O-])CC(F)(F)F)c(C)cc2F)c(=O)n1C (stereo not drawn) [Example 94] | 83 | 1.77 | 1.77 | – | – | – | – | – | – | –
9 | CCn1c([S+](C)[O-])nn(-c2cc([S+]([O-])CC(F)(F)F)c(C)cc2F)c1=O (stereo not drawn) [Example 241] | – | 1.65 | 1.61 | – | – | – | – | 100 | – | 100
10 | Cc1cc(F)c(-n2nc([S+]([O-])C(C)C)n(C)c2=O)cc1[S+]([O-])CC(F)(F)F (stereo not drawn) [Example 245] | – | 1.94 | 1.90 | – | – | – | – | 100 | – | 100
11 | Cc1cc(F)c(-n2nc(Br)n(C(C)C)c2=O)cc1[S+]([O-])CC(F)(F)F (stereo not drawn) [Example 442, 5-Bromo-2-{2-fluoro-4-methyl-5-[(2,2,2-trifluoroethyl)sulphinyl]phenyl}-4-isopropyl-2,4-dihydro-3H-1,2,4-triazol-3-one] | – | – | – | – | 2.68 | 2.68 | 2.62 | – | 100 | 100
12 | Cc1cc(F)c(-n2nc(Br)n(C(C)C)c2=O)cc1SCC(F)(F)F [Example 439, 5-Bromo-2-{2-fluoro-4-methyl-5-[(2,2,2-trifluoroethyl)sulphanyl]phenyl}-4-isopropyl-2,4-dihydro-3H-1,2,4-triazol-3-one] | – | – | – | – | 3.83 | 3.83 | 3.8 | – | 100 | 100
13 | COc1nn(-c2cc(SCC(F)(F)F)c(C)cc2F)c(=O)n1CC(F)(F)F [Example 393] | – | 3.50 | 3.47 | – | – | – | – | 100 | – | 100
14 | COCc1nn(-c2cc([S+]([O-])CC(F)(F)F)c(C)cc2F)c(=O)n1C1CC1 (stereo not drawn) [Example 45] | – | 1.99 | 1.96 | – | – | – | – | 100 | – | 100
15 | CCn1c(SC)nn(-c2cc([S+]([O-])CC(F)(F)F)c(C)cc2F)c1=O (stereo not drawn) [Example 270] | – | 2.39 | 2.33 | – | – | – | – | 100 | – | 100
16 | Cc1cc(C)c([S+]([O-])CC(F)(F)F)cc1-n1nc(OCC(F)(F)F)n(C2CC2)c1=O (racemic) [Example 381] | – | 2.88 | 2.94 | – | – | – | – | 90 | – | 100

Row | SMILES | efficacy (Phaedon cochleariae) [%] | logP[a] [1] | logP[b] [2] | pest or weed control at 500 g/ha (Phaedon cochleariae) [%] | chromatographic logP [1, 3] | chromatographic logP [1, 4] | chromatographic logP [2] | efficacy (Tetranychus urticae) [%] | pest or weed control at 500 g/ha (Tetranychus urticae) [%] | efficacy (Boophilus microplus) [%]
17 | CCn1c(OCC(F)(F)F)nn(-c2cc([S+]([O-])CC(F)(F)F)c(C)cc2F)c1=O (stereo not drawn) [Example 406] | – | 2.82 | 2.78 | – | – | – | – | 90 | – | 100
18 | Cc1cc(F)c(-n2nc(Br)n(C3CC3)c2=O)cc1[S+]([O-])CC(F)(F)F (racemic) [Example 295] | – | 2.39 | 2.34 | – | – | – | – | 100 | – | 100
19 | CCn1c([S+]([O-])CC)nn(-c2cc(SCC(F)(F)F)c(C)cc2F)c1=O (stereo not drawn) [Example 253] | – | 2.84 | 2.81 | – | – | – | – | 100 | – | 100
20 | Cc1cc(F)c(-n2nnn(C)c2=O)cc1[S+]([O-])CC(F)(F)F (stereo not drawn) [Example 301, 1-{2-Fluoro-4-methyl-5-[(2,2,2-trifluoroethyl)sulphinyl]phenyl}-4-methyl-1,4-dihydro-5H-tetrazol-5-one] | – | – | – | – | 1.87 | 1.87 | 1.82 | – | 100 | 100
21 | Cc1cc(F)c(-n2nnn(C)c2=O)cc1SCC(F)(F)F [Example 302, 1-{2-Fluoro-4-methyl-5-[(2,2,2-trifluoroethyl)sulphanyl]phenyl}-4-methyl-1,4-dihydro-5H-tetrazol-5-one] | – | – | – | – | 2.89 | 2.89 | 2.86 | – | 100 | 100
22 | Cc1cc(Cl)c([S+]([O-])CC(F)(F)F)cc1-n1nc(OCC(F)(F)F)n(C2CC2)c1=O (racemic) [Example 384] | – | 3.06 | 2.97 | – | – | – | – | 100 | – | 100
23 | Cc1cc(F)c(-n2nc(C(F)(F)F)n(N)c2=O)cc1[S+]([O-])CC(F)(F)F (stereo not drawn) [Example 215] | – | 2.19 | 2.17 | – | – | – | – | 100 | – | 100
24 | Cc1cc(F)c(-n2nc(C(F)(F)F)n(C3CC3)c2=O)cc1[S+]([O-])CC(F)(F)F (stereo not drawn) [Example 60] | – | 2.93 | 2.82 | – | – | – | – | 90 | – | 100
25 | CSc1nn(-c2cc([S+]([O-])CC(F)(F)F)c(C)cc2F)c(=O)n1C1CC1 (stereo not drawn) [Example 257] | – | 2.45 | 2.40 | – | – | – | – | 100 | – | 100
26 | COc1nn(-c2cc([S+]([O-])CC(F)(F)F)c(C)cc2C)c(=O)n1C1CC1 (stereo not drawn) [Example 119] | – | 2.21 | 2.17 | – | – | – | – | 90 | – | 100
27 | Cc1cc(F)c(-n2nc(S(C)(=O)=O)n(C3CC3)c2=O)cc1[S+]([O-])CC(F)(F)F (stereo not drawn) [Example 228] | – | 2.12 | 2.08 | – | – | – | – | 90 | – | 100
28 | Cc1cc(F)c(-n2nc([S+](C)[O-])n(C3CC3)c2=O)cc1[S+]([O-])CC(F)(F)F (stereo not drawn) [Example 231] | – | 1.61 | 1.58 | – | – | – | – | 100 | – | 100
29 | COc1nn(-c2ccc(C(F)(F)F)c(SCC(F)(F)F)c2)c(=O)n1C [Example 95, 5-Methoxy-4-methyl-2-{3-[(2,2,2-trifluoroethyl)sulphanyl]-4-(trifluoromethyl)phenyl}-2,4-dihydro-3H-1,2,4-triazol-3-one] | – | – | – | 83 | 3.74 | 3.74 | 3.64 | – | – | –
30 | Cn1c(C(F)(F)F)nn(-c2cc(SCC(F)(F)F)c(C#N)cc2F)c1=O [Example 38] | – | 3.09 | 3.08 | – | – | – | – | 100 | – | 100
31 | Cc1ccc(-n2nc(OCC(F)(F)F)n(C3CC3)c2=O)cc1SCC(F)(F)F [Example 92] | – | 4.29 | 4.20 | – | – | – | – | 100 | – | 100

— patent US9981940B2, “Aryl sulfide derivatives and aryl sulfoxide derivatives as acaricides and insecticides” (BAYER CROPSCIENCE AKTIENGESELLSCHAFT, priority 2013, dated 2018)
